Patent US10398781B2, “Conjugate based systems for controlled drug delivery” (SmartCells, Inc., priority 2009, dated 2019)

Columns and labels:
[1] = tested on: serum insulin and blood glucose levels; test: Effect of a-MM co-injected at the local sub-Q injection site; type: in vivo, non-diabetic, male SD rats; conditions: 5 U/kg sub-Q
Procedure: In view of the data described in Example 42, we set out to determine whether the alpha-methyl mannose (a-MM) induced increase in serum conjugate concentration and bioactivity was a result of an increased rate of absorption from the subcutaneous injection site. The high affinity TSAT-C6-AETM-2 conjugate I-2 was used for this experiment. First, the conjugate was diluted to a concentration of 5 U/ml (0.2 mg/ml insulin equivalent) using either a buffered saline solution or a buffered saline solution containing 1 M a-MM. Each solution was injected sub-Q at a dose of 5 U/kg into the back of the neck of each of three non-diabetic, male SD rats at time 0 and blood samples were collected via tail vein bleeding at 0 minutes and at 15, 30, 45, 60, 90, 120, 150, 180, 240, and 300 minutes after injection. […] In this experiment, rats that received the a-MM conjugate solution also received an injection of buffered saline solution sub-Q at a separate hind quarter injection site at 15 minutes. Rats that received the saline conjugate solution also received an injection of a-MM solution sub-Q at a separate hind quarter injection site at 15 minutes.

[2] = tested on: serum insulin and blood glucose levels; test: Effect of IP exogenous saccharide 15 minutes after sub-Q conjugate on PK/PD profile; type: in vivo, fasted normal non-diabetic rats (Male Sprague-Dawley)
[3] = tested on: blood glucose; test: Glucose lowering after i.v. injection in minipigs with and without a-MM infusion; type: in vivo, non-diabetic male Yucatan minipigs; conditions: 0.1 U/kg i.v.; for overall bioactivity (glucose lowering): minipigs
[4] = Accelerated stability testing (AST) aggregation assay; type: physicochemical; conditions: PBS buffer
[5] = tested on: blood glucose; test: Sub-Q injection in non-diabetic and alloxan-diabetic minipigs; type: in vivo, Yucatan minipigs
[6] = Sugar-dependent i.v. elimination half-life in minipigs; type: in vivo, non-diabetic, male miniature swine (Yucatan strain); conditions: pigs, 0.1 U/kg i.v.
[7] = tested on: blood glucose; test: Blood glucose depression profile after subcutaneous injection; type: in vivo, fasted normal non-diabetic rats (Male Sprague-Dawley); conditions: sub-Q
[8] = sub-Q, II-2 0.25, 0.50, 1.00 U/kg, RHI 0.063 and 0.125 U/kg
[9] = 0.25 ml of 20 U equivalent insulin/ml

I-2: human insulin conjugated at B1 to TSAT-C6 framework with two AETM ligands
serum insulin and blood glucose with 1M a-MM co-injected vs. buffered saline [1]: the serum insulin levels do not increase and the blood glucose levels do not decrease | effect of IP L-fucose on serum insulin profile ([2]; L-fucose IP 15 minutes after sub-Q injection): alpha-methyl mannose and L-fucose appear to exhibit the same kind of effect | change in PK/PD profile from IP injection of alpha-methyl mannose vs. saline ([2]; a-MM IP 15 minutes after sub-Q injection): very significant (p<0.05) | effect of IP galactose on serum insulin profile ([2]; galactose IP 15 minutes after sub-Q injection): no effect as compared to saline | effect of IP glucose on serum insulin profile ([2]; glucose IP 15 minutes after sub-Q injection): small effect

I-12: human insulin conjugated at A1 to TSAT-C6 framework with two AETM ligands
overall bioactivity (glucose lowering) [3]: slightly more effective in lowering glucose than conjugate I-6

I-16: human insulin conjugated at B1 to TSPE framework with three AEM ligands
AST aggregation stability compared with RHI [4]: greatly enhanced stability over pharmaceutical grade RHI

II-2: A1,B29-disubstituted insulin, TSAT-C6 frameworks, four AETM ligands
area over the glucose lowering curve in the presence of a-MM vs. absence of sugar [3]: approximately 2.6 × | a-MM induced bioactivity ([3]; a-MM infusion 25% w/v 80 ml/h): increased the a-MM induced bioactivity | overall bioactivity (glucose lowering) [3]: reduced overall bioactivity | duration of hypoglycemia-free glucose control in diabetic minipigs ([5]; single injection of approximately 0.5 U/kg): 6 to 8 h | blood glucose in alloxan-diabetic, hyperglycemic minipigs [5, 8]: significant dose-dependent reduction in blood glucose levels | hypoglycemia / glucose-lowering in non-diabetic minipigs [5, 8]: absolutely no hypoglycemia or signs of glucose-lowering | increase in t1/2 in the presence of a-MM [6]: ~10 fold

insulin-glycogen: comparative insulin-oyster glycogen (Type II) conjugate per U.S. Patent Application Publication No. 20070099820
glucose depression profile / glucose lowering response ([7]; 2.5-5 U/kg): lower glucose levels much more rapidly and to a greater extent

insulin-dextran: comparative insulin-dextran (MW~70K) conjugate made by CNBr coupling per U.S. Patent Publication No. 20040202719
duration of serum glucose depression post injection [7, 9]: at least five hours | time to reach the glucose nadir (Tnadir) [7, 9]: about 3 hours
